Results reported in ChEMBL document CHEMBL1143695, “Synthesis and biological studies of novel 2-aminoalkylethers as potential antiarrhythmic agents for the conversion of atrial fibrillation” (J Med Chem, 2007).
pIC50: −log10 of the molar value. Active and inactive are the calls of the source. No cut-off for these calls is given here.

What was measured:
Rattus norvegicus [1] = test: Hemodynamic effect in intravenously dosed Sprague-Dawley rat with ischemia-induced arrhythmia assessed as dose producing 10% reduction in systemic blood pressure; format: functional
Canis familiaris [2] = organism: Canis familiaris; test: Reduction of heart rate in Mongrel dog vagal atrial fibrillation model; format: functional, organism-based; details: Canis lupus familiaris
Canis familiaris [3] = organism: Canis familiaris; test: Reduction of blood pressure in Mongrel dog vagal atrial fibrillation model; format: functional, organism-based; details: Canis lupus familiaris
in vivo = details: CD1, mouse, iv
Description: Toxicity in intravenously dosed CD1 mouse

Rattus norvegicus [4] = test: CNS toxicity in iv dosed Sprague-Dawley rat assessed as cumulative convulsion dose; format: organism-based; details: in vivo
Rattus norvegicus [5] = test: Antiarrhythmic activity in intravenously dosed Sprague-Dawley rat with ischemia-induced arrhythmia; format: functional, Heart
[6] = target: Sodium channel protein type 5 subunit alpha (Homo sapiens, UniProt Q14524)
Description: Inhibition of human heart sodium channel Nav1.5 by patch-clamp method

[7] = target: Potassium voltage-gated channel subfamily A member 5 (Homo sapiens, UniProt P22460); test: Inhibition of human potassium channel Kv1.5 by patch-clamp method
[8] = target: T1, A-type voltage-gated potassium channel KCND2 (Rattus norvegicus, UniProt Q63881); test: Inhibition of rat potassium channel Kv4.2 by patch-clamp method
T1 sequence (Q63881 whole entry): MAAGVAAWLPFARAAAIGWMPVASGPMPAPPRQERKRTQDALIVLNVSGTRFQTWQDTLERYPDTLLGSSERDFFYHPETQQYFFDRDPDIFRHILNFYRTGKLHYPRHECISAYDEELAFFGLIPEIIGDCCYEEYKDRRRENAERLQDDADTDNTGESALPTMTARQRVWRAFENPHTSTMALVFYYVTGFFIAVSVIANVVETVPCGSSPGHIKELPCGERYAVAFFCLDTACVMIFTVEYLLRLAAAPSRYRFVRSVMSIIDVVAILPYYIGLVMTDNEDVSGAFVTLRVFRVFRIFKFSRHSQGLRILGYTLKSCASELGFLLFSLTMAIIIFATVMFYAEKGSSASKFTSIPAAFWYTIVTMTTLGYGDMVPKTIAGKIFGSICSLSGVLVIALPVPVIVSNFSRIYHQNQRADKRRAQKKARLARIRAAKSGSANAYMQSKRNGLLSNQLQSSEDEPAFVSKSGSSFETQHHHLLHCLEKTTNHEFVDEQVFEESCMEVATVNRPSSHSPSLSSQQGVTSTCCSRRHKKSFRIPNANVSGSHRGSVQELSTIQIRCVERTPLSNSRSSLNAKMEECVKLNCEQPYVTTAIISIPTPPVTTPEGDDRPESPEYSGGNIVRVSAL

[9] = Half life in Wistar rat at 12 mg/kg. iv; format: ADME, organism-based; parameters: dose 12 mg/kg, route intravenous; details: in vivo
[10] = Clearance in Wistar rat at 12 mg/kg. iv; format: ADME, organism-based; parameters: dose 12 mg/kg, route intravenous; details: in vivo
[11] = target: T2, Potassium voltage-gated channel subfamily B member 1 (Rattus norvegicus, UniProt P15387); test: Inhibition of rat potassium channel Kv2.1 by patch-clamp method
T2 sequence (P15387 whole entry): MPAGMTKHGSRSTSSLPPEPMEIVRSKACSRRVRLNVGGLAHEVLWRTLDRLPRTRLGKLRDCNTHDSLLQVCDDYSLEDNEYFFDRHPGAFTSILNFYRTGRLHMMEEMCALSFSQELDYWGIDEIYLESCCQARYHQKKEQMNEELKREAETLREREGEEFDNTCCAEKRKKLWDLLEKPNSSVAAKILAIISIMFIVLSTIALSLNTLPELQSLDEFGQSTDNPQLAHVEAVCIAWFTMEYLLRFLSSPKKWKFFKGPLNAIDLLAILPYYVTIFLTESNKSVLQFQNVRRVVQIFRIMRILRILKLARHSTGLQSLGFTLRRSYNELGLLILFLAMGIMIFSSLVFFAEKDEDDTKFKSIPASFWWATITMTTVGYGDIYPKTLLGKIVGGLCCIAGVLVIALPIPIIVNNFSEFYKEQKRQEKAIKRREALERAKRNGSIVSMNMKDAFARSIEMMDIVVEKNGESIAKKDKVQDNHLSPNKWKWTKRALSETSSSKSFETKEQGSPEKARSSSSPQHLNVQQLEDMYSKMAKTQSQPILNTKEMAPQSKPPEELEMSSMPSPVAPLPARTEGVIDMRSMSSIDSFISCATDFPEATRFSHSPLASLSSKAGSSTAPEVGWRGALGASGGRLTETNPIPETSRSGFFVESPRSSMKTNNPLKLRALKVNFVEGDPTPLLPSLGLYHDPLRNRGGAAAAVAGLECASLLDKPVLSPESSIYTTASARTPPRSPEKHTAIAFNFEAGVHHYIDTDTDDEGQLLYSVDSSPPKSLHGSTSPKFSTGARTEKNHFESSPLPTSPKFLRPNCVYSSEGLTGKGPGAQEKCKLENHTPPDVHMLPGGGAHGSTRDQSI

[12] = Oral bioavailability in Wistar rat at 24 mg/kg. […]; format: ADME, organism-based; details: in vivo
Canis familiaris [13] = organism: Canis familiaris; test: Effect on Mongrel dog sterile pericarditis atrial fibrillation model assessed as conversion of atrial fibrillation to normal sinus rhythm; format: functional, organism-based; details: Canis lupus familiaris; Cardiac atrium
[14] = Volume of distribution at steady state in Wistar rat at 12 mg/kg. iv; format: ADME, organism-based; parameters: dose 12 mg/kg, route intravenous; details: in vivo, read-out: Vdss
Canis familiaris [15] = organism: Canis familiaris; test: Effect on Mongrel dog sterile pericarditis atrial fibrillation model assessed as dose for conversion of atrial fibrillation to normal sinus rhythm; format: functional, Canis lupus familiaris, Cardiac atrium
Canis familiaris [16] = organism: Canis familiaris; test: Effect on Mongrel dog vagal atrial fibrillation model assessed as dose for conversion of atrial fibrillation to normal sinus rhythm; format: functional, Canis lupus familiaris, Cardiac atrium
Canis familiaris [17] = organism: Canis familiaris; test: Effect on Mongrel dog vagal atrial fibrillation model assessed as conversion of atrial fibrillation to normal sinus rhythm; format: functional, organism-based; details: Canis lupus familiaris; Cardiac atrium
[18] = (§1) Volume of distribution at steady state in Wistar rat at 17 mg/kg. iv; format: ADME, organism-based; parameters: dose 17 mg/kg, route intravenous; details: Wistar, in vivo, read-out: Vdss
[19] = (§2) Half life in Wistar rat at 17 mg/kg. iv; format: ADME, organism-based; parameters: dose 17 mg/kg, route intravenous; details: Wistar, in vivo
Rattus norvegicus [20] = test: (§3) Oral bioavailability in Wistar rat at 34 mg/kg. […]; format: ADME, organism-based; details: in vivo
[21] = Clearance in Wistar rat at 17 mg/kg. iv; format: ADME, organism-based; parameters: dose 17 mg/kg, route intravenous; details: in vivo
[22] = as §3; format: ADME, organism-based; details: Wistar, in vivo, oral
Rattus norvegicus [23] = test: as §1; format: ADME, organism-based; parameters: dose 17 mg/kg, route intravenous; details: in vivo
Rattus norvegicus [24] = test: as §2; format: ADME, organism-based; parameters: dose 17 mg/kg, route intravenous; details: in vivo

Sequence of Sodium channel protein type 5 subunit alpha (Q14524 whole entry): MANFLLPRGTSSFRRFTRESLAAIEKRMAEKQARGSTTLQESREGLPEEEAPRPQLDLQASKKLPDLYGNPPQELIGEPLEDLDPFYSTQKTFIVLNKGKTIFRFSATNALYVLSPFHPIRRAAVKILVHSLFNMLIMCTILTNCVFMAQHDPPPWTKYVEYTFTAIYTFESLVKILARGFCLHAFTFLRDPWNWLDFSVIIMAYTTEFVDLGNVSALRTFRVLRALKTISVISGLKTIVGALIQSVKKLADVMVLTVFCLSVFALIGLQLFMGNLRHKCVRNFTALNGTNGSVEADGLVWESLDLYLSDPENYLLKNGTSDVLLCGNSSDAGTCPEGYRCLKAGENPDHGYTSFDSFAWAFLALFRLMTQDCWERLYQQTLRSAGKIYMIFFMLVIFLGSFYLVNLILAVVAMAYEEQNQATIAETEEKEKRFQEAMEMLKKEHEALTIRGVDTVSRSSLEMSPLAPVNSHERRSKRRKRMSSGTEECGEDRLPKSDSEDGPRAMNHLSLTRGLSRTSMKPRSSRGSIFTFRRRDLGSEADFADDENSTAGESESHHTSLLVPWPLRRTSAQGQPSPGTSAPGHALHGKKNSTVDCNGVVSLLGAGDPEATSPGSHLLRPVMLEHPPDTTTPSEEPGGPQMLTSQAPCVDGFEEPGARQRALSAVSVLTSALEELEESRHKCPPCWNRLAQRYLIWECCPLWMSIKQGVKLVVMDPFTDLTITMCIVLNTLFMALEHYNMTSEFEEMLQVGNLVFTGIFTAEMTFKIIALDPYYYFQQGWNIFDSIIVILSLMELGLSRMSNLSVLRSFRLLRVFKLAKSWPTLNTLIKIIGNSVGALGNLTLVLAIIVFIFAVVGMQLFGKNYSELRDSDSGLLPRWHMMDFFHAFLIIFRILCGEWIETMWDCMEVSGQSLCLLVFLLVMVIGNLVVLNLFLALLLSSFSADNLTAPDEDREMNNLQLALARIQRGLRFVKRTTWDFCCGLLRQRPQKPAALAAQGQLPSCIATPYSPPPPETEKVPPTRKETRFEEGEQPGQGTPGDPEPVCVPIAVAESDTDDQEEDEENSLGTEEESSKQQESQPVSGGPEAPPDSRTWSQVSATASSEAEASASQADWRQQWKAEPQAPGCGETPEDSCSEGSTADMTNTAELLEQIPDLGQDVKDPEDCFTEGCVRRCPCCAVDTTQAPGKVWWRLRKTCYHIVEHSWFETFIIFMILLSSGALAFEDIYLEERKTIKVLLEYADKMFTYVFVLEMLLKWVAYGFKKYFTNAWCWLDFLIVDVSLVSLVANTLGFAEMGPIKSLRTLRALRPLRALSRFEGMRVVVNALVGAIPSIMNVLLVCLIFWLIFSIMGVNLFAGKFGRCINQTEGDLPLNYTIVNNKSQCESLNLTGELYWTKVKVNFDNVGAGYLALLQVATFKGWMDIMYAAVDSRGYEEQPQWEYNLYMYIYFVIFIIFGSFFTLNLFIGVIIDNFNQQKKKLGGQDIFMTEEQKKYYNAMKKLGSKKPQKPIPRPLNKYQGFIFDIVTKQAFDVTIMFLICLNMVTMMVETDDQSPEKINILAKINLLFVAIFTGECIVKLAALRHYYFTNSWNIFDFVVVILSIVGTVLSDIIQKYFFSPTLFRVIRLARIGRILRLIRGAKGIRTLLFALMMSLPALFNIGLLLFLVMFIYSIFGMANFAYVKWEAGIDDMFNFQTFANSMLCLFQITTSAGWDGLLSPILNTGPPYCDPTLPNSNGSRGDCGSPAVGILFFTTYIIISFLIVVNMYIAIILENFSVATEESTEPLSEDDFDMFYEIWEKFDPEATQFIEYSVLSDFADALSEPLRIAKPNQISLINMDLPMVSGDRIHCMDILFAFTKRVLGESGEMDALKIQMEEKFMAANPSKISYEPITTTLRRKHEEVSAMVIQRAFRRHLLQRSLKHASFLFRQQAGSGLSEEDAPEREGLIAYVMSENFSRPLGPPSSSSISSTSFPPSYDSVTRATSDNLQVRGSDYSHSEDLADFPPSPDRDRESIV
Sequence of Potassium voltage-gated channel subfamily A member 5 (P22460 whole entry): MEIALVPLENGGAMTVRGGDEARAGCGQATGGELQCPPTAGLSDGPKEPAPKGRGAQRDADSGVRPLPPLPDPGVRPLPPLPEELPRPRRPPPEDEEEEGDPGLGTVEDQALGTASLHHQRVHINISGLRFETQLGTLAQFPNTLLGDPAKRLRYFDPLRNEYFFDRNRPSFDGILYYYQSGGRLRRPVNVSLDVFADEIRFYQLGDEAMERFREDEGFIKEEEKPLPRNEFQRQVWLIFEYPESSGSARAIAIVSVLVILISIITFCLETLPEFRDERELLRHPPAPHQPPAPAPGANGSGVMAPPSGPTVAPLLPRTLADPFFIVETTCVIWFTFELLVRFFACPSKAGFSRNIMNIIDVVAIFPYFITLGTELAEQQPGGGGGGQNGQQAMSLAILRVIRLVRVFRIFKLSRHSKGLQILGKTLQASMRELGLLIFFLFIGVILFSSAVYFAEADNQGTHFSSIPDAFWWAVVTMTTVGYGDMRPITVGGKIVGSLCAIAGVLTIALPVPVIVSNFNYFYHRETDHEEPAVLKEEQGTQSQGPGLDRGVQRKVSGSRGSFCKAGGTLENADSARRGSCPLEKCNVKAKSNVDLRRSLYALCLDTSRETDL

| Compound | LD50 (in vivo) | Activity (Rattus norvegicus [4]) | ED50 (Rattus norvegicus [5]) | pIC50 [7] | pIC50 [8] | further results |
| --- | --- | --- | --- | --- | --- | --- |
| CCCCc1oc2ccccc2c1C(=O)c1cc(I)c(OCCN(CC)CC)c(I)c1 [AMIODARONE] | – | – | – | – | – | Activity (Rattus norvegicus [1]): 4 µmol/kg/min |
| O=C1CCN([C@@H]2CCCC[C@H]2OCCc2cccc3ccccc23)C1 (stereo in doubt; 26) [listing 1 of 2 here] | – | – | – | – | – | Activity (Canis familiaris [2]): inactive; Activity (Canis familiaris [3]): inactive |
| COc1ccc(CCO[C@@H]2CCCC[C@H]2N2CCOCC2)cc1OC | 97 µmol/kg | 113 µmol/kg | 1.5 µmol/kg/min | – | – | – |
| Brc1ccc(CCO[C@@H]2CCCC[C@H]2N2CCOCC2)cc1 | 103 µmol/kg | 91 µmol/kg | 2.5 µmol/kg/min | – | – | – |
| c1ccc2c(CCO[C@@H]3CCCC[C@H]3N3CCOCC3)cccc2c1 | 42 µmol/kg | 93 µmol/kg | 0.8 µmol/kg/min | 5.89 | 4.77 | pIC50 [6]: 5.40; half-life [9]: 6.5 h; Activity (Canis familiaris [2]): inactive; clearance [10]: 50.1 mL/min/kg; pIC50 [11]: 5.49; Activity (Canis familiaris [3]): inactive; bioavailability [12]: 4%; Activity (Canis familiaris [13]): Active; Vd [14]: 29 L/kg; Activity (Canis familiaris [15]): 8 µmol/kg |
| c1cc(CCO[C@@H]2CCCC[C@H]2N2CCOCC2)c2ccsc2c1 | 38 µmol/kg | 54 µmol/kg | 0.7 µmol/kg/min | – | – | – |
| Clc1ccc(CCO[C@@H]2CCCC[C@H]2N2CCOCC2)cc1Cl | 228 µmol/kg | 118 µmol/kg | 1.5 µmol/kg/min | 5.44 | 4.96 | pIC50 [6]: 4.82; half-life [9]: 4.5 h; Activity (Canis familiaris [2]): inactive; clearance [10]: 48.5 mL/min/kg; pIC50 [11]: 5.62; Activity (Canis familiaris [3]): inactive; Activity (Canis familiaris [16]): 17 µmol/kg; bioavailability [12]: 7%; Activity (Canis familiaris [13]): Active; Vd [14]: 19 L/kg; Activity (Canis familiaris [15]): 10 µmol/kg; Activity (Canis familiaris [17]): Active |
| Brc1ccccc1CCO[C@@H]1CCCC[C@H]1N1CCOCC1 | 86 µmol/kg | 125 µmol/kg | 1 µmol/kg/min | – | – | – |
| Brc1ccc(CCCO[C@@H]2CCCC[C@H]2N2CCOCC2)cc1 | 209 µmol/kg | 143 µmol/kg | 3.5 µmol/kg/min | – | – | – |
| O=C(NCC1CCCCN1)c1cc(OCC(F)(F)F)ccc1OCC(F)(F)F (stereo unspecified) [FLECAINIDE] | 20 µmol/kg | 113 µmol/kg | – | 4.29 | 5.00 | – |
| COc1ccc(CCCO[C@@H]2CCCC[C@H]2N2CCOCC2)c(OC)c1 | 130 µmol/kg | 94 µmol/kg | 1.2 µmol/kg/min | – | – | – |
| O=C1CCN([C@@H]2CCCC[C@H]2OCCc2cccc3ccccc23)C1 (stereo in doubt; 26) [listing 2 of 2 here] | 227 µmol/kg | 225 µmol/kg | 0.4 µmol/kg/min | 5.37 | 5.05 | pIC50 [6]: 4.60; Vd [18]: 4.5 L/kg; half-life [19]: 6.3 h; F (Rattus norvegicus [20]): 58%; pIC50 [11]: 5.55; clearance [21]: 38.7 mL/min/kg |
| COc1ccc(CCCO[C@@H]2CCCC[C@H]2N2CCOCC2)cc1OC | 112 µmol/kg | 109 µmol/kg | 1.5 µmol/kg/min | – | – | – |
| O=C1CCN([C@H]2CCCC[C@@H]2OCCc2cccc3ccccc23)C1 | – | 150 µmol/kg | 1.9 µmol/kg/min | 5.11 | 5.05 | pIC50 [6]: 4.89; Vd [18]: 2.6 L/kg; half-life [19]: 1 h; bioavailability [22]: 32%; pIC50 [11]: 5.10; clearance [21]: 30.2 mL/min/kg |
| O=C1CCN([C@@H]2CCCC[C@H]2OCCc2cccc3ccccc23)C1 (stereo in doubt; 40) | – | 193 µmol/kg | 1.2 µmol/kg/min | 5.23 | 4.96 | pIC50 [6]: 4.96; Vdss (Rattus norvegicus [23]): 8.3 L/kg; t1/2 (Rattus norvegicus [24]): 3.8 h; F (Rattus norvegicus [20]): 6%; pIC50 [11]: 5.22 |
| c1cc(CCO[C@@H]2CCCC[C@H]2N2CCOCC2)c2ccoc2c1 | 56 µmol/kg | – | 1.4 µmol/kg/min | – | – | – |
| c1ccc2cc(CCO[C@@H]3CCCC[C@H]3N3CCOCC3)ccc2c1 | 130 µmol/kg | 85 µmol/kg | 0.8 µmol/kg/min | – | – | – |
| c1ccc2c(CCO[C@@H]3CCCC[C@H]3N3CCOCC3)csc2c1 | 52 µmol/kg | 65 µmol/kg | 0.8 µmol/kg/min | – | – | – |
| CCN(CC)CC(=O)Nc1c(C)cccc1C [LIDOCAINE] | – | 190 µmol/kg | 4.5 µmol/kg/min | 2.66 | 2.92 | – |
| Brc1ccc(CCO[C@H]2CCCC[C@H]2N2CCOCC2)cc1 (single isomer, unassigned) | – | 6.7 µmol/kg | 2 µmol/kg/min | – | – | – |
| O=C1CCN([C@@H]2CCCC[C@H]2OCCc2ccccc2C(F)(F)F)C1 | – | 225 µmol/kg | 2.7 µmol/kg/min | – | – | – |
| Clc1cccc(Cl)c1CCO[C@@H]1CCCC[C@H]1N1CCOCC1 | 76 µmol/kg | 86 µmol/kg | 1.2 µmol/kg/min | – | – | – |
| O=C1CCN([C@@H]2CCCC[C@H]2OCCc2cccc3ccccc23)CC1 | – | 75 µmol/kg | 0.9 µmol/kg/min | – | – | – |
